Experiments:
Format in all cases: biochemical
[1] = target: T1, JAK2 (Homo sapiens, UniProt O60674); assay: Z'-LYTE kinase assay, JAK2 tyrosine phosphorylation activity
T1 construct: 5 μl of catalytic domain recombinant Kinase enzyme+Tyr peptide substrate (Invitrogen, Calif.); purchased Invitrogen
Procedure, shortened: (§1)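 FRET read-out (ex 400 nm, em 445 and 520 nm) after protease cleavage of non-phosphorylated Tyr6 peptide. Kinase step: catalytic-domain enzyme, peptide, ATP and compound, 1 h at RT, 1% DMSO. IC50 from a 4-parameter logistic fit of percent phosphorylation versus uninhibited control.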

[2] = target: T2, JAK1 (Homo sapiens, UniProt P23458); assay: Z'-LYTE kinase assay, JAK1 tyrosine phosphorylation activity; conditions: read-out: JAK 1 IC50
T2 construct: 5 μl of catalytic domain recombinant Kinase enzyme+Tyr peptide substrate (Invitrogen, Calif.); purchased Invitrogen
Procedure, shortened: as §1

[3] = target: T3, TYK2 (Homo sapiens, UniProt P29597); assay: Z'-LYTE kinase assay, TYK2 tyrosine phosphorylation activity
T3 construct: 5 μl of catalytic domain recombinant Kinase enzyme+Tyr peptide substrate (Invitrogen, Calif.); purchased Invitrogen
T3 sequence (P29597 897-1176 limits assumed): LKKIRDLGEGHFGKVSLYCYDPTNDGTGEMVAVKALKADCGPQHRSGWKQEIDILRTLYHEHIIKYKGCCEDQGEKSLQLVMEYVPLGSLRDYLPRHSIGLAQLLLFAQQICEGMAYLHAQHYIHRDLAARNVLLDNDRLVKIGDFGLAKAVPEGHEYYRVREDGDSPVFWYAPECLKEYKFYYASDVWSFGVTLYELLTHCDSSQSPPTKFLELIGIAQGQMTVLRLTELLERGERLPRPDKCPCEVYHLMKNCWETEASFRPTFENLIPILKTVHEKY
Experimental: JAK and TYK2 tyrosine phosphorylation activity is measured using the Z′-LYTE™ Technology developed by Invitrogen Corporation (Carlsbad, Calif.). For JAK1, JAK2 and JAK3 the Z′-LYTE™ Kinase Assay Kit-Tyr6 Peptide (part number PV4122) was used. For TYK2 the Z′-LYTE™ Kinase Assay Kit-Tyr6 Peptide (part number PV3192) was used. The Z′-LYTE™ biochemical assay employs a fluorescence resonance energy transfer (FRET) coupled-enzyme format and is based on the differential sensitivity of phosphorylated and non-phosphorylated peptides to proteolitic cleavage. The assay uses a synthetic peptide substrate that is labelled with a donor fluorophore (coumarin) and an acceptor fluorophore (fluorescein) that make up a FRET pair. In the primary reaction (the Kinase Reaction), the kinase transfers the γ-phosphate of ATP to a single tyrosine residue on the substrate, while the presence of a kinase inhibitor in the primary reaction suppresses phosphorylation. In the secondary reaction (the Development Reaction), a site-specific protease (the Development Reagent) is added. The development buffer quenches the Kinase Reaction, while the protease recognizes and cleaves non-phosphorylated Z′-LYTE™ peptide substrate. Cleavage disrupts FRET between the donor and acceptor fluorophores on the non-phosphoryleted substrate, while uncleaved, phosphorylated substrate maintains FRET.
To test the ability of candidate molecules to inhibit JAK tyrosine phosphorylation activity, molecules are reconstituted in 100% DMSO and serially diluted 1:10 in polypropylene v-bottom microtiter plates. The candidate molecules are then diluted 1:25 into kinase buffer and 2.5 μl transferred into duplicate wells of a 384 well low volume black microtiter assay plate (Corning, USA). The final DMSO concentration in the assay is 1%. The kinase reaction contains 2.5 μl of a candidate molecule, 5 μl of catalytic domain recombinant Kinase enzyme+Tyr peptide substrate (Invitrogen, Calif.) and 2.5 μl ATP (Invitrogen, Calif.). The kinase reaction is allowed to procede for 1 hour at room temperature. The protease reaction is initiated by the addition of 5 μl Development Reagent (Invitrogen, Calif.). After 1 hour incubation at room temperature the fluorescence is measured using a FlexStation plate reader (Molecular Devices, Sunnyvale, Calif.). The reader settings used are as follows: Fluorescence mode, endpoint, top read, excitation 400 nm, emission 445 nm and 520 nm, Auto Cutoff 435 nm and 515 nm, PMT sensitivity high, 6 reads per well. Inhibition of JAK activity is calculated as the percent phosphorylation of substrate in the presence of inhibitor compared to the percent phosphorylation of substrate in the absence of inhibitor. IC50's were derived using Xlfit 4.3 (IDBS, UK), 4 parameter logistic model 205: Y=(A+((B−A)/(1+((C/x)^D)))).

[4] = target: T4, JAK3 (Homo sapiens, UniProt P52333); assay: Z'-LYTE kinase assay, JAK3 tyrosine phosphorylation activity
T4 construct: 5 μl of catalytic domain recombinant Kinase enzyme+Tyr peptide substrate (Invitrogen, Calif.); purchased Invitrogen
Procedure, shortened: as §1

T1 sequence (O60674 849-1124 limits assumed): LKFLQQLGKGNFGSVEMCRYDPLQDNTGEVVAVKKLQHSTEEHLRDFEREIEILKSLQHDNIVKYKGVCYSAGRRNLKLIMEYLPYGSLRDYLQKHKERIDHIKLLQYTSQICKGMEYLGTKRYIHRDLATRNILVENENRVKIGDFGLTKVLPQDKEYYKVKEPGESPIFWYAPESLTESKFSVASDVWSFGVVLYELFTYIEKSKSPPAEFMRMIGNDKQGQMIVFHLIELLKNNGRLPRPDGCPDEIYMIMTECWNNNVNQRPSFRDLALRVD
T2 sequence (P23458 875-1153 limits assumed): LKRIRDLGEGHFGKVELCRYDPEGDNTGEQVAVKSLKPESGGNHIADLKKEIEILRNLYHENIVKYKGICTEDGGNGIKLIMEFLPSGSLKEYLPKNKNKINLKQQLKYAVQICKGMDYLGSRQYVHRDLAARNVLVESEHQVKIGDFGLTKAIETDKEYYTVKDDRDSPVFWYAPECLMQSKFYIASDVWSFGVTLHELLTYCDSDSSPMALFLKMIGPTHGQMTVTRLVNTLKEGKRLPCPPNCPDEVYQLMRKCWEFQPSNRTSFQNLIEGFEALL
T4 sequence (P52333 822-1111 limits assumed): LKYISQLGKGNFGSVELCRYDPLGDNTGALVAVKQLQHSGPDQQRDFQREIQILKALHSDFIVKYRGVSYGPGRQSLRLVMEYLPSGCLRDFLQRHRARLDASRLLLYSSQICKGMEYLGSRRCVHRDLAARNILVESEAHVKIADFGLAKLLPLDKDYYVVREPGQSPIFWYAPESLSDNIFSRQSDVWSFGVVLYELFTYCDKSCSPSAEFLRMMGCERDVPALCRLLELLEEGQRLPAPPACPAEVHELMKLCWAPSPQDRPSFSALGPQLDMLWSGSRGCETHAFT

| SMILES | IC50 [1] | IC50 [2] | IC50 [3] | IC50 [4] |
| --- | --- | --- | --- | --- |
| CC[C@@H](C)Nc1nc(Nc2ccc(Cl)c(NC(=O)N3CCCC3)c2)ncc1C(N)=O [Example 237, (R)-4-(sec-butylamino)-2-(4-chloro-3-(pyrrolidine-1-carboxamido)phenylamino)pyrimidine-5-carboxamide] | 10 to 100 nM | 10 to 100 nM | 10 to 100 nM | 1 to 10 nM |
| CC(C)[C@@H](C)Nc1nc(Nc2ccc(Cl)c(NC(=O)N3CCCC3)c2)ncc1C(N)=O [Example 253, (R)-2-(4-chloro-3-(pyrrolidine-1-carboxamido)phenylamino)-4-(3-methylbutan-2-ylamino)pyrimidine-5-carboxamide] | 10 to 100 nM | 10 to 100 nM | 1 to 10 nM | 1 to 10 nM |
| CC(=O)Nc1cccc(Nc2ncc(C(N)=O)c(NCC3CCCN(C(=O)Nc4ccc(F)cc4)C3)n2)c1 (centres unmarked) [Example 118, 2-(3-acetamidophenylamino)-4-((1-(4-fluorophenylcarbamoyl)piperidin-3-yl)methylamino)pyrimidine-5-carboxamide] | 10 to 100 nM | 10 to 100 nM | 10 to 100 nM | 1 to 10 nM |
| NC(=O)c1cnc(Nc2cccc(NC(=O)N3CCCC3)c2)nc1NCc1cccc(Cl)c1 [Example 180, 4-(3-chlorobenzylamino)-2-(3-(pyrrolidine-1-carboxamido)phenylamino)pyrimidine-5-carboxamide] | 10 to 100 nM | 10 to 100 nM | 10 to 100 nM | 1 to 10 nM |
| CNC(=O)c1cnc(Nc2cccc(NC(=O)COC)c2)nc1NCc1ccccc1 [Example 113, 4-(benzylamino)-2-(3-(2-methoxyacetamido)phenylamino)-N-methylpyrimidine-5-carboxamide] | > 1000 nM | > 1000 nM | 100 to 1000 nM | 100 to 1000 nM |
| C[C@@H](Nc1nc(Nc2cccc(NC(=O)N3CCN(C)CC3)c2)ncc1C(N)=O)c1ccccc1 [Example 254, (R)-2-(3-(4-methylpiperazine-1-carboxamido)phenylamino)-4-(1-phenylethylamino)pyrimidine-5-carboxamide] | 1 to 10 nM | 10 to 100 nM | 10 to 100 nM | 1 to 10 nM |
| CC(=O)Nc1cccc(Nc2ncc(C(N)=O)c(Nc3cccc(-c4ncccn4)c3)n2)c1 [Example 199] | 10 to 100 nM | 10 to 100 nM | 10 to 100 nM | 10 to 100 nM |
| C[C@@H](Nc1nc(Nc2cccc(NC(=O)N3CCOCC3)c2)ncc1C(N)=O)c1ccccc1 [Example 255, (R)—N-(3-(5-carbamoyl-4-(1-phenylethylamino)pyrimidin-2-ylamino)phenyl)morpholine-4-carboxamide] | 1 to 10 nM | 10 to 100 nM | 10 to 100 nM | < 1 nM |
| NC(=O)c1cnc(Nc2ccc(Cl)c(NC(=O)N3CCCC3)c2)nc1NC1CCCC1 [Example 167, 2-(4-chloro-3-(pyrrolidine-1-carboxamido)phenylamino)-4-(cyclopentylamino)pyrimidine-5-carboxamide] | 100 to 1000 nM | 10 to 100 nM | 10 to 100 nM | 10 to 100 nM |
| CC(=O)Nc1cccc(Nc2cc(NCc3cccc(F)c3F)c(C(N)=O)cn2)c1 [Example 336, 6-(3-acetamidophenylamino)-4-(2,3-difluorobenzylamino)nicotinamide] | 100 to 1000 nM | 100 to 1000 nM | 100 to 1000 nM | 1 to 10 nM |
| CC(=O)Nc1cccc(Nc2ncc(C(N)=O)c(NCc3ccc4c(c3)OCO4)n2)c1 [Example 99, 2-(3-acetamidophenylamino)-4-(benzo[d][1,3]dioxol-5-ylmethylamino)pyrimidine-5-carboxamide] | 10 to 100 nM | 100 to 1000 nM | 10 to 100 nM | 10 to 100 nM |
| NC(=O)c1cnc(Nc2ccc(Cl)c(NC(=O)N3CCCC3)c2)nc1NCC1CC1 [Example 174, 2-(4-chloro-3-(pyrrolidine-1-carboxamido)phenylamino)-4-(cyclopropylmethylamino)pyrimidine-5-carboxamide] | 100 to 1000 nM | 10 to 100 nM | 10 to 100 nM | 10 to 100 nM |
| CN1CCN(C(=O)Nc2cccc(Nc3ncc(C(N)=O)c(NCc4cccc(F)c4)n3)c2)CC1 [Example 258, 4-(3-fluorobenzylamino)-2-(3-(4-methylpiperazine-1-carboxamido)phenylamino)pyrimidine-5-carboxamide] | 1 to 10 nM | 10 to 100 nM | 1 to 10 nM | < 1 nM |
| CNC(=O)Nc1cc(Nc2ncc(C(N)=O)c(NC3CCCC3)n2)ccc1Cl [Example 166, 2-(4-chloro-3-(3-methylureido)phenylamino)-4-(cyclopentylamino)pyrimidine-5-carboxamide] | 10 to 100 nM | 10 to 100 nM | 10 to 100 nM | 10 to 100 nM |

Second part, the compound after the results:

| IC50 [1] | IC50 [2] | IC50 [3] | IC50 [4] | SMILES |
| --- | --- | --- | --- | --- |
| 10 to 100 nM | > 1000 nM | 10 to 100 nM | 10 to 100 nM | CC(=O)Nc1cccc(Nc2ncc(C(N)=O)c(Nc3ccc(S(C)(=O)=O)cc3)n2)c1 [Example 197] |
| 10 to 100 nM | 100 to 1000 nM | 10 to 100 nM | 10 to 100 nM | CC(=O)Nc1cccc(Nc2ncc(C(N)=O)c(NCc3ccccn3)n2)c1 [Example 187, 2-(3-acetamidophenylamino)-4-(pyridin-2-ylmethylamino)pyrimidine-5-carboxamide] |
| 10 to 100 nM | 10 to 100 nM | 10 to 100 nM | 10 to 100 nM | CC(=O)Nc1cccc(Nc2ncc(C(N)=O)c(NCC3CCCNC3)n2)c1 (centres unmarked) [Example 116, 2-(3-acetamidophenylamino)-4-(piperidin-3-ylmethylamino)pyrimidine-5-carboxamide] |
| 100 to 1000 nM | 100 to 1000 nM | 10 to 100 nM | 10 to 100 nM | CC[C@H](C)Nc1nc(Nc2cccc(NC(=O)COC)c2)ncc1C(N)=O [Example 144, (S)-4-(sec-butylamino)-2-(3-(2-methoxyacetamido)phenylamino)pyrimidine-5-carboxamide] |
| 10 to 100 nM | 10 to 100 nM | 10 to 100 nM | 10 to 100 nM | CC(=O)Nc1cccc(Nc2ncc(C(N)=O)c(N[C@H](C)C(N)=O)n2)c1 [Example 91, (R)-2-(3-acetamidophenylamino)-4-(1-amino-1-oxopropan-2-ylamino)pyrimidine-5-carboxamide] |
| 10 to 100 nM | 10 to 100 nM | 10 to 100 nM | 1 to 10 nM | CC[C@H](C)Nc1nc(Nc2cccc(NC(=O)N3CCCC3)c2)ncc1C(N)=O [Example 145] |
| 10 to 100 nM | 10 to 100 nM | 10 to 100 nM | 1 to 10 nM | CC(=O)Nc1cccc(Nc2ncc(C(N)=O)c(Nc3cccc4c3cnn4C)n2)c1 [Example 191, 2-(3-acetamidophenylamino)-4-(1-methyl-1H-indazol-4-ylamino)pyrimidine-5-carboxamide] |
| 10 to 100 nM | 10 to 100 nM | 10 to 100 nM | 1 to 10 nM | CC(=O)Nc1cccc(Nc2ncc(C(N)=O)c(NCc3cccc(F)c3)n2)c1 [Example 94, 2-(3-acetamidophenylamino)-4-(3-fluorobenzylamino)pyrimidine-5-carboxamide] |
| 100 to 1000 nM | 10 to 100 nM | 100 to 1000 nM | 10 to 100 nM | CC(=O)Nc1cccc(Nc2ncc(C(=O)O)c(NCC3CCNC3)n2)c1 (centres unmarked) [Example 226, 2-(3-acetamidophenylamino)-4-(pyrrolidin-3-ylmethylamino)pyrimidine-5-carboxylic acid] |

Reference: patent US8853230B2, “Inhibitors of JAK” (Portola Pharmaceuticals, Inc., priority 2009, dated 2014)
